Experiments:
Assay in all cases: Kinase Profiling (KINOMEscan)
Assay type in all cases: binding
[1] = target: 456 kinases (of these 395 non-mutant kinases) (Homo sapiens, UniProt P08581, Y1235D); conditions: MET(Y1235D); 10 μM
[2] = target: 456 kinases (of these 395 non-mutant kinases) (Homo sapiens, UniProt Q06418); conditions: TYRO3; 10 μM
[3] = target: 456 kinases (of these 395 non-mutant kinases) (Homo sapiens, UniProt P37023); conditions: ACVRL1; 10 μM
[4] = target: 456 kinases (of these 395 non-mutant kinases) (Homo sapiens, UniProt Q13557); conditions: CAMK2D; 10 μM
Chain of 456 kinases (of these 395 non-mutant kinases) (Homo sapiens, UniProt Q13557) (Q13557 2-499 limits assumed, change not shown): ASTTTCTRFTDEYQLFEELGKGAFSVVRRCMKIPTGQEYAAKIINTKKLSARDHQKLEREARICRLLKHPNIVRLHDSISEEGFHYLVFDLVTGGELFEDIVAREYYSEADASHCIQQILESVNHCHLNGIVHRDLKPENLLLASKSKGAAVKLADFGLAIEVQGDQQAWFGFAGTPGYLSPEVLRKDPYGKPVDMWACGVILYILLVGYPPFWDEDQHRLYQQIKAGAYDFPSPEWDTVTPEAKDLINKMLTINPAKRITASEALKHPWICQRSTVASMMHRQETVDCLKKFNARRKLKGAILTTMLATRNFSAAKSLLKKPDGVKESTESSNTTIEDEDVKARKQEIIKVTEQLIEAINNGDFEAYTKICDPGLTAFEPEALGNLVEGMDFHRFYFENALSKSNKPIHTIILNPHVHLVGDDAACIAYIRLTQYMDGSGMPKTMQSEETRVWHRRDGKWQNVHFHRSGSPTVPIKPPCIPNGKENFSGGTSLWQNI

[5] = target: 456 kinases (of these 395 non-mutant kinases) (Homo sapiens, UniProt P08069); conditions: IGF1R; 10 μM
[6] = target: 456 kinases (of these 395 non-mutant kinases) (Homo sapiens, UniProt O94804); conditions: LOK; 10 μM
[7] = target: 456 kinases (of these 395 non-mutant kinases) (Homo sapiens, UniProt Q00535); conditions: CDK5; 10 μM
[8] = target: 456 kinases (of these 395 non-mutant kinases) (Homo sapiens, UniProt O14976); conditions: GAK; 10 μM
[9] = target: 456 kinases (of these 395 non-mutant kinases) (Homo sapiens, UniProt Q9H2X6); conditions: HIPK2; 10 μM
[10] = target: 456 kinases (of these 395 non-mutant kinases) (Homo sapiens, UniProt P10721, L576P); conditions: KIT(L576P); 10 μM
Chain of 456 kinases (of these 395 non-mutant kinases) (Homo sapiens, UniProt P10721, L576P) (P10721 26-976 L576P limits assumed): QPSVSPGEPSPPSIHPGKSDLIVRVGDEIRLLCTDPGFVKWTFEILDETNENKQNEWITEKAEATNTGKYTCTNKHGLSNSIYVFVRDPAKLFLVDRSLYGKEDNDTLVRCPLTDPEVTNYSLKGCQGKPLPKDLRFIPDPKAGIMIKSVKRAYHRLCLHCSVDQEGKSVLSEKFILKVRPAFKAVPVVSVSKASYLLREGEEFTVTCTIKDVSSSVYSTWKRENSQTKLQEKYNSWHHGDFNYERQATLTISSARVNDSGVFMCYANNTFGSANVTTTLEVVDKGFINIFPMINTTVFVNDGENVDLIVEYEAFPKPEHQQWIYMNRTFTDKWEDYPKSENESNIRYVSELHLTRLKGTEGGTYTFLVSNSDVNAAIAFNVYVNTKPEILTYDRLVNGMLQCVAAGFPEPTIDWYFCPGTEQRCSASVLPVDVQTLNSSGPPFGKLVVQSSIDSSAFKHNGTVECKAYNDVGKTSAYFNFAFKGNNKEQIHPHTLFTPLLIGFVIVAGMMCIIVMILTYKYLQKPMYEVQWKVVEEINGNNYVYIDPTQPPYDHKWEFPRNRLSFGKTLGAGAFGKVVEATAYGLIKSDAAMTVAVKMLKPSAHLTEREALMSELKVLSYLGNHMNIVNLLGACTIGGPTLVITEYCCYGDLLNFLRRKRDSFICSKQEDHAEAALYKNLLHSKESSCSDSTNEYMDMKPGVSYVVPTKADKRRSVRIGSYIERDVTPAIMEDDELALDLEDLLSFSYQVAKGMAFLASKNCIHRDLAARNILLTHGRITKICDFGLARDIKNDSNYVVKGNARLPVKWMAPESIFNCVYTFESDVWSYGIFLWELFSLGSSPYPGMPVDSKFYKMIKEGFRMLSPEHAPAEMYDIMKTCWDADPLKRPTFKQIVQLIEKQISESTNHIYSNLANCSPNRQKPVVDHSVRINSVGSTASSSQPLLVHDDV

[11] = target: 456 kinases (of these 395 non-mutant kinases) (Homo sapiens, UniProt P53778); conditions: p38-gamma; 10 μM
[12] = target: 456 kinases (of these 395 non-mutant kinases) (Homo sapiens, UniProt Q8IU85); conditions: CAMK1D; 10 μM
[13] = target: 456 kinases (of these 395 non-mutant kinases) (Homo sapiens, UniProt Q9H2G2); conditions: SLK; 10 μM
[14] = target: 456 kinases (of these 395 non-mutant kinases) (Homo sapiens, UniProt Q5S007, G2019S); conditions: LRRK2(G2019S); 10 μM
[15] = target: 456 kinases (of these 395 non-mutant kinases) (Homo sapiens, UniProt Q9UHD2); conditions: TBK1; 10 μM
[16] = target: 456 kinases (of these 395 non-mutant kinases) (Homo sapiens, UniProt O15197); conditions: EPHB6; 10 μM
Chain of 456 kinases (of these 395 non-mutant kinases) (Homo sapiens, UniProt O15197) (O15197 32-1021 limits assumed, change not shown): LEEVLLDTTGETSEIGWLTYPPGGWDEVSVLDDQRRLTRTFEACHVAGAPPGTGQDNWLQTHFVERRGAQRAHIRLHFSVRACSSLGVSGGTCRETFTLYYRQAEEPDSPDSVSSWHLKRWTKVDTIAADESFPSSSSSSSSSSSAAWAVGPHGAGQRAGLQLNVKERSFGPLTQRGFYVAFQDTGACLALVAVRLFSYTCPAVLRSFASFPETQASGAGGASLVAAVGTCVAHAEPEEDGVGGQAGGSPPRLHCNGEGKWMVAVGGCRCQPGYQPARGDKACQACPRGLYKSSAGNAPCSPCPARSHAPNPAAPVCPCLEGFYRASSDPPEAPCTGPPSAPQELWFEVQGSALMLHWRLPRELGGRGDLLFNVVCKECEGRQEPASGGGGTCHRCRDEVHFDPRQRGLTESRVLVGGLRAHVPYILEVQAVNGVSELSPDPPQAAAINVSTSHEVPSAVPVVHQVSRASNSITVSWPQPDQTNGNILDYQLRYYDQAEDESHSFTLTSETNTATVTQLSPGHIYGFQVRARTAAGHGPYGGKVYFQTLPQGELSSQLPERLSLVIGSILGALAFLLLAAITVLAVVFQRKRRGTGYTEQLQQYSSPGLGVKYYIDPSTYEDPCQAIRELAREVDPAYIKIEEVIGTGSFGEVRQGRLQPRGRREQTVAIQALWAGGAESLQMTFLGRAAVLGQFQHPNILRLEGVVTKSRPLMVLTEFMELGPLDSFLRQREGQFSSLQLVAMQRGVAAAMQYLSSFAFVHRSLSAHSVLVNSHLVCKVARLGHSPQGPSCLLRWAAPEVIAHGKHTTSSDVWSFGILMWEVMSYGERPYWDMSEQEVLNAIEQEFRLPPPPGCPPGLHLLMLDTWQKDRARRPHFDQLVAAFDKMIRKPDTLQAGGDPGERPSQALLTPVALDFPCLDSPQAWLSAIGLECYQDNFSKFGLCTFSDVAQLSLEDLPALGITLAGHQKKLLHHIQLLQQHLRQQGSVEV

[17] = target: 456 kinases (of these 395 non-mutant kinases) (Homo sapiens, UniProt P29320); conditions: EPHA3; 10 μM
Chain of 456 kinases (of these 395 non-mutant kinases) (Homo sapiens, UniProt P29320) (P29320 21-983 limits assumed, change not shown): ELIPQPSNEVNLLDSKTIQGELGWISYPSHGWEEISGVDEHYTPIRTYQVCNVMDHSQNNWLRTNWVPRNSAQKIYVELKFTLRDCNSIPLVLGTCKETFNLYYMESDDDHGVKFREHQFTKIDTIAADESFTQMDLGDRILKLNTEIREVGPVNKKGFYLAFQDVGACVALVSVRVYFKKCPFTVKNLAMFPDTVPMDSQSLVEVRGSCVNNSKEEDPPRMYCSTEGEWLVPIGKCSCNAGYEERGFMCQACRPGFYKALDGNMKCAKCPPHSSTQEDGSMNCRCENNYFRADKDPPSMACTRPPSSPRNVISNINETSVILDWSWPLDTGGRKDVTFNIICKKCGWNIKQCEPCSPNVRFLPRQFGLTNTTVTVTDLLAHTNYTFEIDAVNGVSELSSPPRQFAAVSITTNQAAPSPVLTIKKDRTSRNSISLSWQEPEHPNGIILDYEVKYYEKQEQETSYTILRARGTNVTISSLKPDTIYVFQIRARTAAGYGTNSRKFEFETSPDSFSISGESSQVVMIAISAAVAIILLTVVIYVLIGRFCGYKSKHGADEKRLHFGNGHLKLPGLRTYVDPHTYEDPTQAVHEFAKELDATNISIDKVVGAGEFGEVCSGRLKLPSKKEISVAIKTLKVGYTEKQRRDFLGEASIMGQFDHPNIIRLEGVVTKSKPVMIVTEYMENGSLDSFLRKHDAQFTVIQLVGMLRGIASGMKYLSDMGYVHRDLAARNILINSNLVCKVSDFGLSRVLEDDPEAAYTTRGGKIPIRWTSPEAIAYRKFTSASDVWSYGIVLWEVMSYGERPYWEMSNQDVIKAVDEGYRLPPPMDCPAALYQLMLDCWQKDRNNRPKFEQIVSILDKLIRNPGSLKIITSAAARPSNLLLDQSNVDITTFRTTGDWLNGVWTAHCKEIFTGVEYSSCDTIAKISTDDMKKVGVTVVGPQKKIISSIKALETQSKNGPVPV

[18] = target: 456 kinases (of these 395 non-mutant kinases) (Homo sapiens, UniProt Q9NSY1); conditions: BIKE; 10 μM
[19] = target: 456 kinases (of these 395 non-mutant kinases) (Homo sapiens, UniProt Q13873); conditions: BMPR2; 10 μM
[20] = target: 456 kinases (of these 395 non-mutant kinases) (Homo sapiens, UniProt P53671); conditions: LIMK2; 10 μM
[21] = target: 456 kinases (of these 395 non-mutant kinases) (Homo sapiens, UniProt P00533, G719S); conditions: EGFR(G719S); 10 μM
[22] = target: 456 kinases (of these 395 non-mutant kinases) (Homo sapiens, UniProt P54764); conditions: EPHA4; 10 μM
Chain of 456 kinases (of these 395 non-mutant kinases) (Homo sapiens, UniProt P54764) (P54764 20-986 limits assumed, change not shown): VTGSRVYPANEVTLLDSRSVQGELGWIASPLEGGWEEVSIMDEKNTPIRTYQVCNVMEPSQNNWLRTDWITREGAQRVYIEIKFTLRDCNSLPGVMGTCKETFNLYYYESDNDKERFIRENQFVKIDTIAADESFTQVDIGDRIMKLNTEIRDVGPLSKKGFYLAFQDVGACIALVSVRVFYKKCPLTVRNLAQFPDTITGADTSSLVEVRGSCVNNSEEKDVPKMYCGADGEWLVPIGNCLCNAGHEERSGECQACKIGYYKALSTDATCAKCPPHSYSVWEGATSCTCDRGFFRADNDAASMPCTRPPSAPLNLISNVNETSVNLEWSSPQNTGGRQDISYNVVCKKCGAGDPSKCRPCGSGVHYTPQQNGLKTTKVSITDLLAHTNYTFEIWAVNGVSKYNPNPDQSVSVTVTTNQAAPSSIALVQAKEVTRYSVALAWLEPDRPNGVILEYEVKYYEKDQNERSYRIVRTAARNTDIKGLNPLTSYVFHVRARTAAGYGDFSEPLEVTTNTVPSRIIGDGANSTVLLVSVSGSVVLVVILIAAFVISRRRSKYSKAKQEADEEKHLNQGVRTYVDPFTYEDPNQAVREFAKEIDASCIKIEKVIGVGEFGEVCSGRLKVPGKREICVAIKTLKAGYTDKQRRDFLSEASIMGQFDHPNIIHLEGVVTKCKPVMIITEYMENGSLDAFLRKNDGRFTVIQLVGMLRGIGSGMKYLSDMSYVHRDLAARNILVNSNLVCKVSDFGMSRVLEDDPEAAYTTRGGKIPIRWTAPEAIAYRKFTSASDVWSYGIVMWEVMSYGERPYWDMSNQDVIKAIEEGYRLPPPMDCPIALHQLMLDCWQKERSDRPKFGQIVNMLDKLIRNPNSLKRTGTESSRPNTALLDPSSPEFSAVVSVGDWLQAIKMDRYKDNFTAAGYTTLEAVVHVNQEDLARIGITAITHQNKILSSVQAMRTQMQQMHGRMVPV

[23] = target: 456 kinases (of these 395 non-mutant kinases) (Homo sapiens, UniProt P51955); conditions: NEK2; 10 μM
[24] = target: 456 kinases (of these 395 non-mutant kinases) (Homo sapiens, UniProt P27448); conditions: MARK3; 10 μM
[25] = target: 456 kinases (of these 395 non-mutant kinases) (Homo sapiens, UniProt Q15139); conditions: PRKD1; 10 μM
[26] = target: 456 kinases (of these 395 non-mutant kinases) (Homo sapiens, UniProt P42345); conditions: MTOR; 10 μM
[27] = target: 456 kinases (of these 395 non-mutant kinases) (Homo sapiens, UniProt Q5S007); conditions: LRRK2; 10 μM
[28] = target: 456 kinases (of these 395 non-mutant kinases) (Homo sapiens, UniProt P06239); conditions: LCK; 10 μM
Chain of 456 kinases (of these 395 non-mutant kinases) (Homo sapiens, UniProt P06239) (P06239 2-509 limits assumed, change not shown): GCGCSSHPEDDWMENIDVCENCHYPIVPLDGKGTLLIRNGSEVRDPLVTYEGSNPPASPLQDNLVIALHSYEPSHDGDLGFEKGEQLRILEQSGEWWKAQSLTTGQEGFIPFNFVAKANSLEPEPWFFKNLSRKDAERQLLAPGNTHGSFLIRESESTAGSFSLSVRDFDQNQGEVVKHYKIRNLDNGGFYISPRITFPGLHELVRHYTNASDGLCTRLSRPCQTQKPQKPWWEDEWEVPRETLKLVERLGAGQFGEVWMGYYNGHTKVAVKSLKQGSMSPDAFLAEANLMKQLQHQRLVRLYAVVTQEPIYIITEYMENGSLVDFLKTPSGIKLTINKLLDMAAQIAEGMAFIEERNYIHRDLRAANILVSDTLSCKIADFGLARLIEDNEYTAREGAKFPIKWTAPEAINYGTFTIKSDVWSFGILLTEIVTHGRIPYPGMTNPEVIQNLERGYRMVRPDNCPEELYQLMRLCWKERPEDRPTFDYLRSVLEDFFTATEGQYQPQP

[29] = target: 456 kinases (of these 395 non-mutant kinases) (Homo sapiens, UniProt Q04759); conditions: PRKCQ; 10 μM
[30] = target: 456 kinases (of these 395 non-mutant kinases) (Homo sapiens, UniProt O75116); conditions: ROCK2; 10 μM
[31] = target: 456 kinases (of these 395 non-mutant kinases) (Homo sapiens, UniProt Q9H2K8); conditions: TAOK3; 10 μM
[32] = target: 456 kinases (of these 395 non-mutant kinases) (Homo sapiens, UniProt P07949, M918T); conditions: RET(M918T); 10 μM

CCc1ccccc1NC(=O)c1c(C)nsc1Nc1cnc2cc(F)ccc2n1 [Example 20, N-(2-Ethylphenyl)-5-[(6-fluoroquinoxalin-2-yl)amino]-3-methyl-1,2-thiazole-4-carboxamide]
% Ctrl @ 10 μM [1]: 77 % Ctrl | % Ctrl @ 10 μM [2]: 56 % Ctrl | % Ctrl @ 10 μM [3]: 100 % Ctrl | % Ctrl @ 10 μM [4]: 89 % Ctrl | % Ctrl @ 10 μM [5]: 100 % Ctrl | % Ctrl @ 10 μM [6]: 100 % Ctrl | % Ctrl @ 10 μM [7]: 100 % Ctrl | % Ctrl @ 10 μM [8]: 96 % Ctrl | % Ctrl @ 10 μM [9]: 100 % Ctrl | % Ctrl @ 10 μM [10]: 100 % Ctrl | % Ctrl @ 10 μM [11]: 58 % Ctrl | % Ctrl @ 10 μM [12]: 87 % Ctrl | % Ctrl @ 10 μM [13]: 95 % Ctrl | % Ctrl @ 10 μM [14]: 92 % Ctrl | % Ctrl @ 10 μM [15]: 91 % Ctrl | % Ctrl @ 10 μM [16]: 92 % Ctrl | % Ctrl @ 10 μM [17]: 95 % Ctrl | % Ctrl @ 10 μM [18]: 62 % Ctrl | % Ctrl @ 10 μM [19]: 100 % Ctrl | % Ctrl @ 10 μM [20]: 94 % Ctrl | % Ctrl @ 10 μM [21]: 97 % Ctrl | % Ctrl @ 10 μM [22]: 100 % Ctrl | % Ctrl @ 10 μM [23]: 100 % Ctrl | % Ctrl @ 10 μM [24]: 93 % Ctrl | % Ctrl @ 10 μM [25]: 88 % Ctrl | % Ctrl @ 10 μM [26]: 100 % Ctrl | % Ctrl @ 10 μM [27]: 95 % Ctrl | % Ctrl @ 10 μM [28]: 94 % Ctrl | % Ctrl @ 10 μM [29]: 76 % Ctrl | % Ctrl @ 10 μM [30]: 100 % Ctrl | % Ctrl @ 10 μM [31]: 100 % Ctrl | % Ctrl @ 10 μM [32]: 78 % Ctrl
